In ChEMBL document CHEMBL1122476 (J Med Chem, 1983):

Target: Glutamate receptor ionotropic, AMPA (Rattus norvegicus, UniProt P19490+P19491+P19492+P19493)
Assay: Tested for inhibition of Specific DL-[H]Ionotropic glutamate receptor AMPA binding to rat brain membranes
Type: cell membranes, Membrane

SMILES: COc1noc(C)c1CC(N)C(=O)O (stereo unspecified)
- IC50: > 100 µM
